ChEMBL document CHEMBL6087481, “Interleukin-1 Receptor-Associated Kinase 4 (IRAK4) Degraders for Treating Inflammatory Diseases: Advances and Prospects” (J Med Chem, 2025)

Assays:
[1] = target: T1, Interleukin-1 receptor-associated kinase 4 (Homo sapiens, UniProt Q9NWZ3); assay: Inhibition of IRAK4 (unknown origin)
T1 sequence (Q9NWZ3 whole entry): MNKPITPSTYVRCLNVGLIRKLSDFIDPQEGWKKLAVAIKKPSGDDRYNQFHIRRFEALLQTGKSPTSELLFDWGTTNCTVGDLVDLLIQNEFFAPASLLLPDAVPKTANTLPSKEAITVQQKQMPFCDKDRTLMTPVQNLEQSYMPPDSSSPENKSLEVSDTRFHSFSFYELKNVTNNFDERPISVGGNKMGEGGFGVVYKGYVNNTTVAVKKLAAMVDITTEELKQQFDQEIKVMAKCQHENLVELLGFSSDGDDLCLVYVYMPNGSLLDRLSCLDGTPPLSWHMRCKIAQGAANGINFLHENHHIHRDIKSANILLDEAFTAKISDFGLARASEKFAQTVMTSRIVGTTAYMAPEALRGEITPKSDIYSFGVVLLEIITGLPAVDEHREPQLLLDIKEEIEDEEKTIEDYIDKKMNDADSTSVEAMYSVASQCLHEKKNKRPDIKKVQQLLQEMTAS

[2] = target: von Hippel-Lindau disease tumor suppressor/Interleukin-1 receptor-associated kinase 4 (Homo sapiens, UniProt Q9NWZ3+P40337); assay: PROTAC activity at VHL/IRAK4 in human HEK293T cells assessed as IRAK4 degradation measured after 24 hrs by immunoblotting analysis; format: cell-based
[3] = target: T2, Protein cereblon/Interleukin-1 receptor-associated kinase 4 (Mus musculus, UniProt Q8C7D2+Q8R4K2); assay: PROTAC activity at IRAK4/CRBN in mouse RAW264.7 cells assessed as reduction in IRAK4 level incubated for 12 hrs by Western blot analysis; format: cell-based
T2 sequence (Q8C7D2 whole entry): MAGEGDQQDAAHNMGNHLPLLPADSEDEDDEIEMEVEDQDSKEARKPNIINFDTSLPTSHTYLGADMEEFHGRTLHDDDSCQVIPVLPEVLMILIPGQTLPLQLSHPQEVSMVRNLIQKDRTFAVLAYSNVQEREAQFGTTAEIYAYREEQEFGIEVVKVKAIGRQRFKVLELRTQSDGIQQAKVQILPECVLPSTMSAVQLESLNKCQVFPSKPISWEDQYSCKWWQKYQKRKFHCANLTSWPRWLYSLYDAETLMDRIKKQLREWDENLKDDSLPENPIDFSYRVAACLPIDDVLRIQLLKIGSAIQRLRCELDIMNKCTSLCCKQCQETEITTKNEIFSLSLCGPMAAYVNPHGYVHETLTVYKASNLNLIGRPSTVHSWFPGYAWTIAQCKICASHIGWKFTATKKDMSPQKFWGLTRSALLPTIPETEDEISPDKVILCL
T2 sequence (Q8R4K2 whole entry): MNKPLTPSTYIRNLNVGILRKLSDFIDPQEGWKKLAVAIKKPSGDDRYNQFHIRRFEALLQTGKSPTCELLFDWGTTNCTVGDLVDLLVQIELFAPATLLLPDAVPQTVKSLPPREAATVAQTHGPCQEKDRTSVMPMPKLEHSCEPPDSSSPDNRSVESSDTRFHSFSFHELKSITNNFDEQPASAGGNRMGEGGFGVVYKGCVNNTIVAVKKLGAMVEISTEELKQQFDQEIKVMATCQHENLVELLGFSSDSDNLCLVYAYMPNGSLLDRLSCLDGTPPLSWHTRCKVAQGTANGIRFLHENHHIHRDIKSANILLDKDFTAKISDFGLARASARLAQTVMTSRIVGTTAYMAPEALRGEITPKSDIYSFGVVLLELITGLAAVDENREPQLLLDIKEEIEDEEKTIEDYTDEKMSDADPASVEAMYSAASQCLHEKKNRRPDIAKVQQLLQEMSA

Chain of von Hippel-Lindau disease tumor suppressor/Interleukin-1 receptor-associated kinase 4 (P40337 whole entry, one chain of several): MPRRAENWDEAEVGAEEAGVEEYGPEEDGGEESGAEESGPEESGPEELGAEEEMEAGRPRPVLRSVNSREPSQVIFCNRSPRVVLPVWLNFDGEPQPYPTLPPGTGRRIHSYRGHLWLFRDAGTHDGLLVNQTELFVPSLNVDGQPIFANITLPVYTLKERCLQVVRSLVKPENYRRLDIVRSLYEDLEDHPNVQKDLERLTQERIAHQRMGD

Which IC50 [1] does the source give for `CC(C)Nc1cc(-n2ccc3cc(C#N)cnc32)ncc1C(=O)N[C@H]1CC[C@H](C(=O)NC2CC2)CC1` here?
Its IC50 is 3 nM.

Which DC50 [2] does the source give for `CC(C)Nc1cc(-n2ccc3cc(C#N)cnc32)ncc1C(=O)N[C@H]1CC[C@H](C(=O)NCCOCCNC(=O)Oc2cccc3c2C(=O)N(C2CCC(=O)NC2=O)C3=O)CC1` (stereo partly drawn) here?
Its DC50 is 405 nM.

Which DC50 [3] does the source give for `COc1cc(N2CCN(C(=O)CCOCC#Cc3ccc4c(c3)C(=O)N(C3CCC(=O)NC3=O)C4=O)CC2)ccc1NC(=O)c1cccc(-c2ccn[nH]2)n1` (stereo not drawn) here?
Its DC50 is 47.3 nM.
